Measured values: patent publication EP1911452A1, “Silicon-derivates for PET-Imaging” (Bayer Schering Pharma Aktiengesellschaft, priority 2006, dated 2008)

experiment: Hydrolytic stability: time dependent degree of hydrolysis of the 19F fluorosilane to the hydroxy compound at physiological pH (7.0); type: physicochemical; conditions: ratio of hydrolytic halflife to radioactive halflife of the 18-F isotope (1.83 hours)
Procedure: The time dependent degree of hydrolysis of compounds of formula I in which X is a fluorine atom of isotope 19 to compounds of formula I in which X is a hydroxy group was determined at physiological pH (7.0). From the kinetics the hydrolytic halflife (t1/2) measured in hours [h] of compounds of formula I in which X is a fluorine atom of isotope 19 were calculated (Table 1, column 2).
The ratio of the hydrolytic halflifes of compounds of formula I in which X is a fluorine atom of isotope 19 and the radioactive halflife of the 18-F isotope (1.83 hours) is defined as relative stability (Table 1, column 3).
After 6 hours 90% of the 18-F isotope have been decayed.
Compounds of formula I in which X is a fluorine atom of isotope 18 are considered as useful for PET applications if the relative stability of their analogs bearing a fluorine atom of isotope 19 exceed a factor of four and if at least 50% of these compounds remain intact after 6 hours under hydrolytic conditions at pH 7.

Row | Structure (SMILES) | rel. stability
1 | CC(C)[Si](F)(c1cccc(CCOC2CCCCO2)c1)C(C)C (racemic) [Compound 3e - F, (RS)-Fluoro-diisopropyl-{3-[2-(tetrahydro-pyran-2-yloxy)-ethyl]-phenyl}-silane] | > 54.6
2 | CC(C)C[Si](F)(CCCCC(=O)Nc1ccccc1)CC(C)C [Compound 30a - 1F, 5-(Fluoro-diisobutyl-silanyl)-pentanoic acid phenylamide] | 7.5
3 | CC(C)[Si](F)(c1ccc(C(=O)O)cc1)C(C)C [Compound 5a - F, 4-(Fluoro-diisopropyl-silanyl)-benzoic acid] | 6.1
4 | CC(C)C[Si](F)(CC(C)C)c1ccc(CC(=O)O)cc1 [Compound 5h - F, [4-(Fluoro-diisobutyl-silanyl)-phenyl]-acetic acid] | 4.8
5 | F[Si](c1ccccc1)(c1ccccc1)c1ccc(CCOC2CCCCO2)cc1 (racemic) [Compound 3f - F, (RS)-Fluoro-diphenyl-{4-[2-(tetrahydro-pyran-2-yloxy)-ethyl]-phenyl}-silane] | 0.04
6 | CC(C)[Si](F)(c1ccc(COC2CCCCO2)cc1)C(C)C (racemic) [Compound 3a - F, (RS)-Fluoro-diisopropyl-[4-(tetrahydro-pyran-2-yloxymethyl)-phenyl]-silane] | 27.0
7 | CC(C)C[Si](F)(CC(C)C)c1ccc(C(=O)O)cc1 [Compound 5g - F, 4-(Fluoro-diisobutyl-silanyl)-benzoic acid] | 1.9
8 | CC(C)C[Si](F)(CC(C)C)c1ccc(COC2CCCCO2)cc1 (racemic) [Compound 3g - F, (RS)-Fluoro-diisobutyl-[4-(tetrahydro-pyran-2-yloxymethyl)-phenyl]-silane] | 4.5
